Test [1] deals with Gram-positive and Gram-negative bacteria. The conditions noted are these: J. Am. Chem. Soc., 96, 7584 (1974); J. Med. Chem., 20, 551 (1977); cited from earlier work.
For the next test, the system named is Escherichia coli Juhl. Put plainly: Heart Infusion Agar Dilution Method, minimum inhibitory concentration. It is filed as cell-based. On the procedure: (§1) The activity is determined by the Heart Infusion Agar Dilution Method (pH 7.2).
In another test the test system is Escherichia coli NIHJC-2. The description is as above. It counts as cell-based. On the procedure:
as §1

Test [2] has as its system Klebsiella pneumoniae 8045. The description is as above. It is filed as cell-based. To be noted: pH 7.2. On the procedure: as §1
Test [3] relates to Klebsiella pneumoniae Y-60. The description is as above. It counts as cell-based. On the procedure: as §1
Another test has as its system Proteus mirabilis 1287. Described as above. The conditions noted are these: pH 7.2. It is filed as cell-based. On the procedure: as §1
Another test has as its system Proteus morganii KY4298. The description is as above. The conditions noted are these: Morganella morganii. It is filed as cell-based. The protocol:
as §1

For the next test, the system named is Proteus rettgeri KY4289. Described as above. The conditions noted are these: Providencia rettgeri. It counts as cell-based. On the procedure:
as §1

Another test relates to Proteus vulgaris 6897. The description is as above. It is filed as cell-based. The conditions noted are these: pH 7.2. On the procedure: as §1
The test system of the next test is Pseudomonas putida F264. The description is as above. It is filed as cell-based. The protocol: as §1
The next test concerns Serratia marcescens T-55. The description is as above. It counts as cell-based. On the procedure: as §1
In test [4] the test system is Staphylococcus aureus 209-p. The description is as above. It is filed as cell-based. The protocol: as §1
Test [5] concerns Staphylococcus aureus Smith. The description is as above. The conditions noted are these: pH 7.2. It is filed as cell-based. The protocol:
as §1

Test [6] concerns Staphylococcus epidermidis. Described as above. It counts as cell-based. To be noted: pH 7.2. On the procedure:
as §1

Test [7] deals with Gram-positive and Gram-negative bacteria. Put plainly: antibacterial activity (general statements). It is filed as cell-based. The conditions noted are these: general or comparative statement.
Where [8] appears, read: Escherichia coli Juhl, Heart Infusion Agar Dilution Method, pH 7.2, read-out: Minimum Inhibitory Concentration.
Where [9] appears, read: NIHJC2, Escherichia coli NIHJC-2, Heart Infusion Agar Dilution Method, pH 7.2, read-out: Minimum Inhibitory Concentration.
Where [10] appears, read: Y60, Klebsiella pneumoniae Y-60, Heart Infusion Agar Dilution Method, pH 7.2, read-out: Minimum Inhibitory Concentration.
Setting [11] is: Proteus morganii KY4298, Heart Infusion Agar Dilution Method, pH 7.2, read-out: Minimum Inhibitory Concentration.
The mark [12] stands for this setting: Proteus rettgeri KY4289, Heart Infusion Agar Dilution Method, pH 7.2, read-out: Minimum Inhibitory Concentration.
Setting [13] is: Pseudomonas putida F264, Heart Infusion Agar Dilution Method, pH 7.2, read-out: Minimum Inhibitory Concentration.
Where [14] appears, read: T55, Serratia marcescens T-55, Heart Infusion Agar Dilution Method, pH 7.2, read-out: Minimum Inhibitory Concentration.
Where [15] appears, read: Staphylococcus aureus 209-p, Heart Infusion Agar Dilution Method, pH 7.2, read-out: Minimum Inhibitory Concentration.

The values below come from patent publication US4708956A, “3-position halogenated cephalosporin analogs and pharmaceutical compositions” (Kyowa Hakko Kogyo Co., Ltd., priority 1986, dated 1987).

Structures are written as SMILES. ≈ marks a conversion by molar mass, not a printed value. Like-named read-outs stand apart in the source and are kept apart here.

For `CC(=O)OCC1=C(C(=O)O)N2C(=O)C(NC(=O)Cc3cccs3)C2CC1` (racemic) [(i)-1-carbacephalotin], the “antibacterial activity, in words (literature)” value in test [1] was “having antibacterial activity”.
Turning to `CO/N=C(\C(=O)N[C@@H]1C(=O)N2C(C(=O)O)=C(Cl)CC[C@H]12)c1ccco1` (relative stereo) [c, cis-7-[2-(2-furyl)-2-syn-methoxyiminoacetamido]-3-chloro-1-azabicyclo[4,2,0]oct-2-en-8-on-2-carboxylic acid], the MIC in the test with Escherichia coli Juhl (setting [8]) was 50 µg/mL (≈ 136 µM); with Escherichia coli NIHJC-2 (setting [9]), 50 µg/mL (≈ 136 µM); in test [2], 12.5 µg/mL (≈ 34 µM); in [3] (setting [10]), 50 µg/mL (≈ 136 µM); in the test with Proteus mirabilis 1287, 12.5 µg/mL (≈ 34 µM); in the test with Proteus morganii KY4298 (setting [11]), more than 100 µg/mL. The MIC in the test on Proteus rettgeri KY4289 (setting [12]) was 25 µg/mL (≈ 68 µM); with Proteus vulgaris 6897 it was 25 µg/mL (≈ 68 µM); with Pseudomonas putida F264 (setting [13]) it was more than 100 µg/mL; in the test with Serratia marcescens T-55 (setting [14]), more than 100 µg/mL; in [4] (setting [15]) it was 6.25 µg/mL (≈ 17 µM); in test [5], 12.5 µg/mL (≈ 34 µM). In test [6], this molecule returned an MIC of 25 µg/mL (≈ 68 µM).
For the molecule `CO/N=C(\C(=O)N[C@@H]1C(=O)N2C(C(=O)O)=C(Cl)CC[C@H]12)c1csc(N)n1` (relative stereo) [d, (±)-cis-7-[2-(2-aminothiazole-4-yl)-2-syn-methoxyiminoacetamido]-3-chloro-1-azabicyclo[4,2,0]oct-2en-8-on-2-carboxylic acid], the MIC was 0.4 µg/mL (≈ 1 µM) with Escherichia coli Juhl (setting [8]); 0.78 µg/mL (≈ 1.95 µM) with Escherichia coli NIHJC-2 (setting [9]); not above 0.05 µg/mL in [2]; 0.78 µg/mL (≈ 1.95 µM) in test [3] (setting [10]); 0.1 µg/mL (≈ 0.25 µM) against Proteus mirabilis 1287; 0.4 µg/mL (≈ 1 µM) in the test on Proteus morganii KY4298 (setting [11]). Also, the MIC in the test on Proteus rettgeri KY4289 (setting [12]) was 0.1 µg/mL (≈ 0.25 µM); against Proteus vulgaris 6897 it was 0.4 µg/mL (≈ 1 µM); in the test on Pseudomonas putida F264 (setting [13]), 3.12 µg/mL (≈ 7.8 µM); with Serratia marcescens T-55 (setting [14]) it was 1.56 µg/mL (≈ 3.9 µM); in test [4] (setting [15]), 50 µg/mL (≈ 125 µM); in [5], 50 µg/mL (≈ 125 µM). Besides, the MIC in [6] came out at 50 µg/mL (≈ 125 µM).
Take `N[C@@H](C(=O)N[C@@H]1C(=O)N2C(C(=O)O)=C(Cl)CC[C@H]12)c1ccccc1` [a, (6R, 7S) 7-(R)-phenylglycinamido-3-chloro-1-azabicyclo[4,2,0]oct-2-en-8-on-2-carboxylic acid]: the MIC with Proteus morganii KY4298 (setting [11]) is more than 100 µg/mL; in the test with Proteus rettgeri KY4289 (setting [12]), 100 µg/mL (≈ 286 µM); against Proteus vulgaris 6897, 100 µg/mL (≈ 286 µM); with Pseudomonas putida F264 (setting [13]), 100 µg/mL (≈ 286 µM). Moreover, the “antibacterial (antimicrobial) activity, in words” value in test [7] was “greater antimicrobial activity”.
With `CCN1CCN(C(=O)N[C@@H](C(=O)N[C@@H]2C(=O)N3C(C(=O)O)=C(Cl)CC[C@H]23)c2ccccc2)C(=O)C1=O` [b, (6R, 7S) 7-[(R)-2-phenyl-2-(4-ethyl-2,3-dioxopiperadinylcarbonylamino)-acetamido]-3-chloro-1-azabicyclo[4,2,0]oct-2-en-8-on-2-carboxylic acid], the MIC was determined as 3.12 µg/mL (≈ 6.02 µM) in the test on Escherichia coli Juhl (setting [8]); 3.12 µg/mL (≈ 6.02 µM) with Escherichia coli NIHJC-2 (setting [9]); 0.1 µg/mL (≈ 0.193 µM) in test [2]; 12.5 µg/mL (≈ 24.1 µM) in test [3] (setting [10]); 1.56 µg/mL (≈ 3.01 µM) with Proteus mirabilis 1287; 3.12 µg/mL (≈ 6.02 µM) in the test with Proteus morganii KY4298 (setting [11]). Also, the MIC is 3.12 µg/mL (≈ 6.02 µM) in the test with Proteus rettgeri KY4289 (setting [12]); not above 0.05 µg/mL in the test on Proteus vulgaris 6897; 25 µg/mL (≈ 48.3 µM) in the test with Pseudomonas putida F264 (setting [13]); 3.12 µg/mL (≈ 6.02 µM) with Serratia marcescens T-55 (setting [14]); 0.4 µg/mL (≈ 0.772 µM) in test [4] (setting [15]); 1.56 µg/mL (≈ 3.01 µM) in [5]. Besides, the MIC in test [6] was determined as 1.56 µg/mL (≈ 3.01 µM).
With `N[C@@H](C(=O)N[C@@H]1C(=O)N2C(C(=O)O)=C(Cl)CC[C@H]12)c1ccc(O)cc1` [e, (6R, 7S) 7-(R)-p-hydroxyphenyl-glycinamido-3-chloro-1-azabicyclo[4,2,0]oct-2-en-8-on-2-carboxylic acid], the MIC with Escherichia coli Juhl (setting [8]) was 1.56 µg/mL (≈ 4.26 µM); in the test with Escherichia coli NIHJC-2 (setting [9]) it was 1.56 µg/mL (≈ 4.26 µM); in [2] it was 0.78 µg/mL (≈ 2.13 µM); in test [3] (setting [10]), 12.5 µg/mL (≈ 34.2 µM); in the test with Proteus mirabilis 1287, 3.12 µg/mL (≈ 8.53 µM); with Proteus morganii KY4298 (setting [11]), more than 100 µg/mL. Also, the MIC came out at 100 µg/mL (≈ 273 µM) in the test with Proteus rettgeri KY4289 (setting [12]); 100 µg/mL (≈ 273 µM) in the test with Proteus vulgaris 6897; 100 µg/mL (≈ 273 µM) in the test with Pseudomonas putida F264 (setting [13]); 6.25 µg/mL (≈ 17.1 µM) in the test on Serratia marcescens T-55 (setting [14]); 0.4 µg/mL (≈ 1.09 µM) in test [4] (setting [15]); 1.56 µg/mL (≈ 4.26 µM) in [5]. In [6], this molecule came in with an MIC of 1.56 µg/mL (≈ 4.26 µM).
As for `CC1=C(C(=O)O)N2C(=O)[C@@H](NC(=O)[C@H](N)c3ccccc3)[C@H]2SC1` [f, Cephalexin, reference compound], the MIC with Escherichia coli Juhl (Escherichia coli, pH 7.2, read-out: Minimum Inhibitory Concentration) was 12.5 µg/mL (≈ 36 µM); in the test on Escherichia coli NIHJC-2 (Escherichia coli, NIHJC2, pH 7.2, read-out: Minimum Inhibitory Concentration), 12.5 µg/mL (≈ 36 µM); in [3] (Klebsiella pneumoniae, Y60, pH 7.2, read-out: Minimum Inhibitory Concentration), 50 µg/mL (≈ 144 µM); in the test on Proteus morganii KY4298 (KY4298, pH 7.2, read-out: Minimum Inhibitory Concentration) it was more than 100 µg/mL; in the test on Proteus rettgeri KY4289 (KY4289, pH 7.2, read-out: Minimum Inhibitory Concentration) it was more than 100 µg/mL; in the test with Pseudomonas putida F264 (Pseudomonas putida, F264, pH 7.2, read-out: Minimum Inhibitory Concentration) it was more than 100 µg/mL. In addition, the MIC was 50 µg/mL (≈ 144 µM) in the test on Serratia marcescens T-55 (Serratia marcescens, T55, pH 7.2, read-out: Minimum Inhibitory Concentration) and 0.2 µg/mL (≈ 0.576 µM) in test [4] (Staphylococcus aureus, 209P, pH 7.2, read-out: Minimum Inhibitory Concentration).
